The values that follow come from ChEMBL document CHEMBL1128920, “Tetrahydrothienopyridine derivatives as novel GPIIb/IIIa antagonists” (Bioorg Med Chem Lett, 1996).

For experiment [1], the target named is T1, Integrin alpha-IIb/beta-3 (Homo sapiens, UniProt P05106+P08514). Put plainly: Inhibition of biotinylated fibrinogen binding to alphaIIb-beta3 integrin. The experiment is classed as protein-complex assay.
The species named for another experiment is Homo sapiens. Nature of the experiment: Inhibitory activity against ADP-mediated human platelet aggregation in human platelet rich plasma. The class given is functional.
The target in experiment [2] is T1, Integrin alpha-IIb/beta-3. Nature of the experiment: Biotinylated fibrinogen binding to alpha IIb beta-3 integrin. The experiment is classed as protein-complex assay.
Experiment [3] concerns the target T1, Integrin alpha-IIb/beta-3. Nature of the experiment: Inhibition of Vitronectin binding to GPIIb/IIIIa Vitronectin receptor. The class given is protein-complex assay.
A short description of experiment [4]: Inhibition of fibronectin binding to GPIIb/IIIIa fibronectin receptor.
Experiment [5] deals with T1, Integrin alpha-IIb/beta-3. Nature of the experiment: Inhibition of vWF binding to GPIIb/IIIIa receptor. The class given is protein-complex assay.
Experiment [6] deals with T1, Integrin alpha-IIb/beta-3. Nature of the experiment: Inhibition of vWF binding to alphaIIb-beta3 integrin. The class given is protein-complex assay.

Molecules are shown by their SMILES. Values joined by “and” are separate entries in the source; they are usually repeats but may differ in a detail not shown here. Equal entries are not always repeated.

T1 sequence (P05106 27-788 limits assumed): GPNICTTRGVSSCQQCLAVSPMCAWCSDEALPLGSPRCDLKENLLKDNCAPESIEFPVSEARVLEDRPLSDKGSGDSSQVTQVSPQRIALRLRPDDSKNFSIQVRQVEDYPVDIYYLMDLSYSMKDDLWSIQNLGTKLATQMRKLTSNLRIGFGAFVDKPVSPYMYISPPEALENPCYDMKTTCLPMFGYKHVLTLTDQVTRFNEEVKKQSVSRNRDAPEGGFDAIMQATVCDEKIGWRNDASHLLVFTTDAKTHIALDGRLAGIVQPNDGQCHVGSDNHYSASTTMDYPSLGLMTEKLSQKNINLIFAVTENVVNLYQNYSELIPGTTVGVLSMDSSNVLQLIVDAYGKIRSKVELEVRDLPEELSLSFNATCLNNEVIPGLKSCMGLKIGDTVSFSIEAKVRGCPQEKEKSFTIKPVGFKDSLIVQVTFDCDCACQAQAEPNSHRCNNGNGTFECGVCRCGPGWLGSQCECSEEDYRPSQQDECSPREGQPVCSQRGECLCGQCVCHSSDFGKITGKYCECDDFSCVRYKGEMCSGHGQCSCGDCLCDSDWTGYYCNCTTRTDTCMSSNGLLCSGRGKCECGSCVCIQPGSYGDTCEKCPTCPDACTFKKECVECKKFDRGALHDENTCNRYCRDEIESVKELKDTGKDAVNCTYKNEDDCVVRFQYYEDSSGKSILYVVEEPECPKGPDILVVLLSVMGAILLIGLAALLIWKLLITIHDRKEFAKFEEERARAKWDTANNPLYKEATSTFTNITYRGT
T1 sequence (P08514 32-887 limits assumed): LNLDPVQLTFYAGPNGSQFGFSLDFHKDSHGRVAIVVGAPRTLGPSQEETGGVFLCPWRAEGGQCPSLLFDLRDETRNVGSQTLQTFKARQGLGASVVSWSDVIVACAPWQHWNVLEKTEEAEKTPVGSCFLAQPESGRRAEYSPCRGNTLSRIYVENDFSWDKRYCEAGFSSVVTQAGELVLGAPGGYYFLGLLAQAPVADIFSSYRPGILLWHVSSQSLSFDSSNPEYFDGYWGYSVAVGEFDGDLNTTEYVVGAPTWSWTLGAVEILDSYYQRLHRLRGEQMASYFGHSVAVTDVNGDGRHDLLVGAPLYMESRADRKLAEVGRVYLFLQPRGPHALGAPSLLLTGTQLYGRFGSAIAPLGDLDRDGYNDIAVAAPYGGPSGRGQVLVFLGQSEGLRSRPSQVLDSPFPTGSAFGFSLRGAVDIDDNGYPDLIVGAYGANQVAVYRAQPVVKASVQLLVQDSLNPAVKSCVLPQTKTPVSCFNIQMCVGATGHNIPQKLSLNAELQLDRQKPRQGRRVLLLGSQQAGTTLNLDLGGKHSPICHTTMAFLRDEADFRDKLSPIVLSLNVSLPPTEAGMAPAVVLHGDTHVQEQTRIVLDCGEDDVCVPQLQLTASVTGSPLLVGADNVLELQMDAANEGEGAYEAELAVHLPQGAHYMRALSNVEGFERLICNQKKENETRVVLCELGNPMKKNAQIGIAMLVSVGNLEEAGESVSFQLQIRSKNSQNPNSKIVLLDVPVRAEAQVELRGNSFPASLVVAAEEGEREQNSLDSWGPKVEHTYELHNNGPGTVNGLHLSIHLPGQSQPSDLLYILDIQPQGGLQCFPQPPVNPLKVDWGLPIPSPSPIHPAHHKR
T1 sequence (P08514 891-1039 limits assumed): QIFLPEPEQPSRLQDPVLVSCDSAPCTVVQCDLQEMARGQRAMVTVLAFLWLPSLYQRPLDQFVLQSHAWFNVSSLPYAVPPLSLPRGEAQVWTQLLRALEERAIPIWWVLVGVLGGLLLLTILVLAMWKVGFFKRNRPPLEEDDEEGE

In the case of `O=C(O)COc1ccc(C(=O)CNC(=O)CCCC2CCNCC2)cc1OCC(=O)O`, the IC50 (usually the point on the concentration scale where inhibition reaches its midpoint) in experiment [1] is above 100 nM; in the experiment filed under Homo sapiens, 9000 nM.

Turning to `O=C(O)COc1cnc(C(=O)CNC(=O)c2cc3c(s2)CCNC3)cc1OCC(=O)O`, the IC50 was 9.8 nM in experiment [2] and 470 nM in the experiment listed under Homo sapiens.

Consider `O=C(O)COc1ccc(C(=O)CNC(=O)c2sc3c(c2Cc2ccccc2)CNCC3)cc1OCC(=O)O`, for which the values for the IC50 (in experiment [2]; in the experiment listed under Homo sapiens) were 62 nM and above 10000 nM, respectively.

`NC(N)=NCCC[C@H](N)C(=O)NCC(=O)N[C@@H](CC(=O)O)C(=O)O`: the 50% inhibitory concentration (IC50) worked out at 1400 nM in experiment [3]; 76 nM in experiment [1]; 87000 nM in the experiment filed under Homo sapiens; 510 nM in experiment [4]; 4000 nM in experiment [5].

With `O=C(O)COc1ccc(C(=O)CNC(=O)c2cc3c(s2)CNC3)cc1OCC(=O)O`, the IC50 is above 100 nM in experiment [1] and 1600 nM in the experiment filed under Homo sapiens.

For the compound `O=C(O)COc1ccc(C(=O)CNC(=O)c2cc3c(s2)CCNCC3)cc1OCC(=O)O`, the IC50 in experiment [2] stood at 6 nM; in the experiment listed under Homo sapiens it was 150 nM.

Consider `O=C(O)COc1ccc(C(=O)CNC(=O)c2cc3c(s2)CCNC3)cc1OCC(=O)O`, for which the IC50 in experiment [3] was above 100000 nM; in experiment [2] it was 4.7 nM and 5.6 nM; in the experiment listed under Homo sapiens, 160 nM; in experiment [4] it was above 100000 nM; in experiment [6] it was 28 nM.

With `O=C(O)COc1ccc(C(=O)CNC(=O)c2cc3c(s2)CCCNC3)cc1OCC(=O)O`, the IC50 in experiment [2] stood at 8.7 nM; in the experiment listed under Homo sapiens it was 1900 nM.

As for `O=C(O)COc1ccc(C(=O)CNC(=O)c2cc3c(s2)CCNC3)cc1`, the IC50 in experiment [2] was 31 nM; in the experiment filed under Homo sapiens it was 1200 nM.

`O=C(O)COc1cc(OCC(=O)O)cc(C(=O)CNC(=O)c2cc3c(s2)CCNC3)c1`: the IC50 in experiment [2] was above 1000 nM; in the experiment filed under Homo sapiens, above 10000 nM.

On to `O=C(O)COc1ccc(C(=O)CNC(=O)c2cc3c(s2)CCNC3)c(OCC(=O)O)c1`, for which the results for the IC50 (in experiment [2]; in the experiment listed under Homo sapiens) were above 100 nM and 1500 nM, respectively.

For `O=C(O)COc1ccc(C(=O)CNC(=O)c2cc3c(s2)CCNC3)nc1`, the IC50 in experiment [2] is 100 nM; in the experiment listed under Homo sapiens it was 720 nM.

Consider `O=C(O)COc1ccc(C(=O)CNC(=O)c2cc3c(s2)CNCC3)cc1OCC(=O)O`, for which the IC50 stood at 1.4 nM in experiment [2] and 230 nM in the experiment filed under Homo sapiens.

Consider `Cc1c(C(=O)NCC(=O)c2ccc(OCC(=O)O)c(OCC(=O)O)c2)sc2c1CNCC2`, for which the figures for the IC50 (in experiment [2]; in the experiment listed under Homo sapiens) were 18 nM and 2500 nM, respectively.

In the case of `O=C(O)COc1ccc(C(=O)CNC(=O)C2CCNCC2)cc1OCC(=O)O`, the IC50 in experiment [2] was above 1000 nM; in the experiment filed under Homo sapiens, 9800 nM.

As to `O=C(O)COc1ccc(C(=O)CNC(=O)CCC2CCNCC2)cc1OCC(=O)O`, the IC50 in experiment [2] worked out at 42 nM; in the experiment listed under Homo sapiens, 350 nM.

For `NCC1CCC(C(=O)NCC(=O)c2ccc(OCC(=O)O)c(OCC(=O)O)c2)CC1` (centres undefined), the IC50 in experiment [1] worked out at 730 nM; in the experiment listed under Homo sapiens it was 4300 nM.

As to `O=C(O)COc1ccc(C(=O)CNC(=O)CC2CCNCC2)cc1OCC(=O)O`, the IC50 in experiment [2] was above 100 nM; in the experiment filed under Homo sapiens it was 10000 nM.

`O=C(O)CCc1ccc(C(=O)CNC(=O)c2cc3c(s2)CCNC3)cc1`: the IC50 in experiment [2] is 80 nM; in the experiment listed under Homo sapiens it was above 10000 nM.
